Data as given in ChEMBL document CHEMBL3885861, “Open TG-GATES”.

Organism: Rattus norvegicus
Assay: Open TG-GATES - Regimen: Single
Type: toxicity, organism-based, Sprague-Dawley
Design: regimen Single, gender Male, age 6 weeks
Conditions: in vivo, po, route gavage; for APTT / Bas / Eos / Fbg / Hb / Ht / Lym / MCHC / MCV / Mono / Neu / PT / Plat / RBC / Ret / WBC: tissue Blood; for KIDNEY_L / KIDNEY_R / KIDNEY_TOTAL: tissue Kidney; for LIVER: tissue Liver; for ALP / ALT / AST / BUN / CRE / Ca / Cl / DBIL / GLC / IP / K / LDH / Na / PL / RALB / TBIL / TC / TG / TP / gamma-GTP: tissue Plasma
[1] = 0 mg/kg, 3 h, dose level Control
[2] = 0 mg/kg, 6 h, dose level Control
[3] = 0 mg/kg, 9 h, dose level Control
[4] = 0 mg/kg, 24 h, dose level Control

`CN(C)C(=N)N=C(N)N` [METFORMIN] gave a TERMINAL_BW [1] of 200.9 g, an APTT [1] of 16.9 s and a Bas [1] of 0%. For the same compound, the Eos [1] was 0.6%, the Fbg [1] was 245.6 mg/dL and the Hb [1] was 13.1 g/dL. It also gave a Ht [1] of 39.6%, a Lym [1] of 76.8% and an MCHC [1] of 33%. The MCV [1] was 65.3 fL, the Mono [1] was 3.4% and the Neu [1] was 18.4%. For the same compound, the PT [1] was 12.3 s, the Plat [1] was 111.6 x10_4/uL and the RBC [1] was 606.6 x10_4/ul. For the same compound, the Ret [1] was 10.1%, the WBC [1] was 96.1 x10_2/uL and the KIDNEY_L [1] was 0.9 g. It also gave a KIDNEY_R [1] of 0.9 g, a KIDNEY_TOTAL [1] of 1.8 g and an LIVER [1] of 8.5 g. The ALP [1] was 1612 IU/L, the ALT [1] was 43.6 IU/L and the AST [1] was 74.2 IU/L. It also gave a BUN [1] of 9.2 mg/dL, a CRE [1] of 0.2 mg/dL and a Ca [1] of 11.1 mg/dL. For the same compound, the Cl [1] was 104 meq/L, the DBIL [1] was 0.016 mg/dL and the GLC [1] was 179.8 mg/dL. It also gave an IP [1] of 9.2 mg/dL, a K [1] of 4.2 meq/L and an LDH [1] of 58.2 IU/L. It also gave a Na [1] of 140 meq/L, a PL [1] of 136.6 mg/dL and an RALB [1] of 2.5 g/dL. For the same compound, the TBIL [1] was 0.052 mg/dL, the TC [1] was 87 mg/dL and the TG [1] was 42.2 mg/dL. For the same compound, the TP [1] was 5.2 g/dL, the gamma-GTP [1] was 1.4 IU/L and the TERMINAL_BW [2] was 202.6 g. For the same compound, the APTT [2] was 16.1 s, the Bas [2] was 0% and the Eos [2] was 0.8%. For the same compound, the Fbg [2] was 261 mg/dL, the Hb [2] was 12.9 g/dL and the Ht [2] was 38.9%. For the same compound, the Lym [2] was 77.2%, the MCV [2] was 62.9 fL and the Mono [2] was 3%. It also gave a Neu [2] of 18.4%, a PT [2] of 12.2 s and a Plat [2] of 113.4 x10_4/uL. The RBC [2] was 618.4 x10_4/ul, the Ret [2] was 9.2% and the WBC [2] was 92.1 x10_2/uL. It also gave a KIDNEY_L [2] of 0.9 g, a KIDNEY_R [2] of 0.9 g and a KIDNEY_TOTAL [2] of 1.8 g. For the same compound, the LIVER [2] was 8 g, the ALP [2] was 1285 IU/L and the ALT [2] was 44.8 IU/L. The AST [2] was 78.8 IU/L, the BUN [2] was 7.6 mg/dL and the CRE [2] was 0.1 mg/dL. It also gave a Ca [2] of 10.7 mg/dL, a Cl [2] of 104.8 meq/L and a DBIL [2] of 0.006 mg/dL. For the same compound, the GLC [2] was 161 mg/dL, the IP [2] was 9.9 mg/dL and the K [2] was 4.1 meq/L. It also gave an LDH [2] of 64 IU/L, a Na [2] of 139.4 meq/L and a PL [2] of 121 mg/dL. For the same compound, the RALB [2] was 2.4 g/dL, the TBIL [2] was 0.046 mg/dL and the TG [2] was 27.2 mg/dL. It also gave a TP [2] of 5 g/dL, a gamma-GTP [2] of 1 IU/L and a TERMINAL_BW [3] of 201 g. It also gave an APTT [3] of 16 s, a Bas [3] of 0% and an Eos [3] of 1%. It also gave a Fbg [3] of 244.8 mg/dL, a Hb [3] of 12.4 g/dL and a Lym [3] of 73.8%. For the same compound, the MCV [3] was 64.5 fL, the Mono [3] was 3.2% and the Neu [3] was 21.4%. For the same compound, the PT [3] was 12.2 s, the Plat [3] was 107.6 x10_4/uL and the RBC [3] was 577.8 x10_4/ul. It also gave a Ret [3] of 10%, a WBC [3] of 75.6 x10_2/uL and a KIDNEY_L [3] of 0.9 g. For the same compound, the KIDNEY_R [3] was 0.9 g, the KIDNEY_TOTAL [3] was 1.7 g and the LIVER [3] was 7.7 g. It also gave an ALP [3] of 1175 IU/L, an ALT [3] of 41.6 IU/L and an AST [3] of 69.6 IU/L. The BUN [3] was 9 mg/dL, the CRE [3] was 0.1 mg/dL and the Ca [3] was 10.6 mg/dL. It also gave a Cl [3] of 105 meq/L, a DBIL [3] of 0.008 mg/dL and a GLC [3] of 164.8 mg/dL. The IP [3] was 10.5 mg/dL, the K [3] was 4 meq/L and the LDH [3] was 49 IU/L. The Na [3] was 141 meq/L, the PL [3] was 136.4 mg/dL and the RALB [3] was 2.5 g/dL. It also gave a TBIL [3] of 0.042 mg/dL, a TC [3] of 87 mg/dL and a TG [3] of 35.6 mg/dL. The TP [3] was 5.1 g/dL, the gamma-GTP [3] was 1 IU/L and the TERMINAL_BW [4] was 207.9 g. For the same compound, the APTT [4] was 16.4 s, the Bas [4] was 0% and the Eos [4] was 1%. It also gave a Fbg [4] of 230.4 mg/dL, a Hb [4] of 13 g/dL and a Ht [4] of 38.7%. The Lym [4] was 77%, the MCHC [4] was 33.5% and the Mono [4] was 3.8%. For the same compound, the Neu [4] was 17.8%, the PT [4] was 12.5 s and the Plat [4] was 115 x10_4/uL. For the same compound, the RBC [4] was 595.2 x10_4/ul, the Ret [4] was 8.9% and the WBC [4] was 101.4 x10_2/uL. The KIDNEY_L [4] was 0.9 g, the KIDNEY_R [4] was 0.9 g and the KIDNEY_TOTAL [4] was 1.8 g. It also gave an LIVER [4] of 10 g, an ALP [4] of 1728.6 IU/L and an ALT [4] of 49.8 IU/L. The AST [4] was 78.2 IU/L, the BUN [4] was 16 mg/dL and the CRE [4] was 0.2 mg/dL. It also gave a Ca [4] of 11.4 mg/dL, a Cl [4] of 103.8 meq/L and a DBIL [4] of 0.012 mg/dL. The GLC [4] was 173 mg/dL, the IP [4] was 8.6 mg/dL and the K [4] was 3.9 meq/L. For the same compound, the LDH [4] was 63.6 IU/L, the Na [4] was 141.2 meq/L and the PL [4] was 139 mg/dL. For the same compound, the RALB [4] was 2.6 g/dL, the TBIL [4] was 0.038 mg/dL and the TG [4] was 89.6 mg/dL. For the same compound, the TP [4] was 5.5 g/dL, the gamma-GTP [4] was 1 IU/L and the TERMINAL_BW (100 mg/kg, 3 h, dose level Low) was 201 g.
